In one experiment the target is T1, Protein Mdm4 (Homo sapiens, UniProt O15151).
T1 sequence (O15151 whole entry): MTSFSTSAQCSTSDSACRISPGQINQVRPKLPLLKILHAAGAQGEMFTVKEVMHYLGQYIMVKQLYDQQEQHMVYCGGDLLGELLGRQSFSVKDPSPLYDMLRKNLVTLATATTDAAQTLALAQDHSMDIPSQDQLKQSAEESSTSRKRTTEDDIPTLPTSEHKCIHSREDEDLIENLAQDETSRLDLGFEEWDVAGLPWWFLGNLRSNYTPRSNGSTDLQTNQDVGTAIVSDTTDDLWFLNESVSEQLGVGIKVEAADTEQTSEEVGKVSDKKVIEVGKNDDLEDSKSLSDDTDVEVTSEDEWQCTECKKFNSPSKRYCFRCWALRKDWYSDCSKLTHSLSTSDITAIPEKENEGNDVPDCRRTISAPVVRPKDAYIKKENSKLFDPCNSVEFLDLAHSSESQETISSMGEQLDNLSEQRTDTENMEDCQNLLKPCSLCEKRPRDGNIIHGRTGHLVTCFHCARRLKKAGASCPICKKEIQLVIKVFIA
Description: Fluorescence Anisotropy Competition Binding Assay. On the procedure:
(§1) Inhibitory activities of NAPAs were measured by fluorescence anisotropy competition experiments. Protein was incubated with fluorescein-labeled human p53 peptide in the presence of test compound. Experiments were performed with a 70-fold molar excess of protein over labeled p53-peptide to ensure that the peptide is completely bound by the protein. […] Fluorescence anisotropy was measured at 25 deg C on a Beacon 2000 (PanVera, Madison, WI). Data points were measured in triplicate. IC50 values were calculated by nonlinear regression curve fitting.

Experiment [1] deals with E3 ubiquitin-protein ligase Mdm2 (Homo sapiens, UniProt Q00987). As to the kind of experiment: Fluorescence Anisotropy Competition Binding Assay. On the procedure: as §1
E3 ubiquitin-protein ligase Mdm2, sequence (Q00987 whole entry): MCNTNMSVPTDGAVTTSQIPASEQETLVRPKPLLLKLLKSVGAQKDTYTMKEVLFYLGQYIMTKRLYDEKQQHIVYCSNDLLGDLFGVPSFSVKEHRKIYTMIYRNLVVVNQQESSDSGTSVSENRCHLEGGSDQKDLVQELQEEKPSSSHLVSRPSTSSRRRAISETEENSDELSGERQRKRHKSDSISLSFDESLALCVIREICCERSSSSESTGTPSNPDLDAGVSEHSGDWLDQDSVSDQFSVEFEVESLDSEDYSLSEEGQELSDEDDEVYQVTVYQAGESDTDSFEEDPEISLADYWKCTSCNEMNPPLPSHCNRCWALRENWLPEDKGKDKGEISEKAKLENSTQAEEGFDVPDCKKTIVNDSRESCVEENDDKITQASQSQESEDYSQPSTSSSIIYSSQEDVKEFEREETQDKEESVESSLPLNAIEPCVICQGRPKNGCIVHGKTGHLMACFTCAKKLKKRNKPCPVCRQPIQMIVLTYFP
In general terms: Polarisation of emitted light reports the rotation of a fluorescent probe.

In the case of `NCCCCC(CN(C(=O)NCCc1ccc(Br)cc1)C(CCC(=O)O)CN(CCC(N)=O)C(=O)NCCCc1ccc(Br)cc1)N(CC(CCC(=O)O)NC(=O)Nc1ccccc1)C(=O)NCCCC1CCCCC1` (centres undefined) [N-acylpolyamine (NAPA) scaffold, 19], the IC50 at Protein Mdm4 was found to be 7.6 µM; in experiment [1] (pH 7.6, 23 °C) it was 10.5 µM.

As for `CC(C)CCC(=O)NC(CCC(=O)O)CN(CCCCCC1CCCCC1)C(CCCCN)CN(CCCCc1ccc(Br)cc1)C(CCC(=O)O)CN(CCCCCc1ccc(F)cc1)CCC(N)=O` (centres undefined) [N-acylpolyamine (NAPA) scaffold, 36], the IC50 (at Protein Mdm4; in experiment [1]) was > 100 µM in each case.

The IC50 is the concentration that inhibits the measured activity by half. A lower IC50 goes with greater potency.
